These are literature values, as cited in patent US20260232672A1, “COMPOSITIONS AND METHODS OF TREATING FEMALE SEXUAL DYSFUNCTION AND FEMALE SEXUAL AROUSAL DISORDER” (Daré Bioscience, Inc., priority 2023, published 2026).

The subject of the data set is pre- and postmenopausal women afflicted with broad-spectrum FSD. The settings on record: oral.

In the case of `CCCc1nn(C)c2c(=O)[nH]c(-c3cc(S(=O)(=O)N4CCN(C)CC4)ccc3OCC)nc12.O=C(O)CC(O)(CC(=O)O)C(=O)O` [oral sildenafil citrate, 1-[4-ethoxy-3-(6,7-dihydro-1-methyl-7-oxo-3-propyl-1H-pyrazolo[4,3-d]pyrimidin-5-yl)phenylsulfonyl]-4-methylpiperazine citrate salt], the “rates of side effects” value (doses 25 mg-100 mg, previous clinical trials in women) is on record as “high rates of side effects”. In addition, the efficacy versus placebo result (published placebo-controlled trials) is on record as “marginal efficacy versus placebo”.
